Assay results as given in ChEMBL document CHEMBL3856229, “Hybrid Antibiotic Overcomes Resistance in P. aeruginosa by Enhancing Outer Membrane Penetration and Reducing Efflux” (J Med Chem, 2016).
≈ marks a conversion by molar mass, not a printed value.

Tests used:
Assay type in all cases: functional
Pseudomonas aeruginosa [1] = assay: Antibacterial activity against multidrug-resistant/tobramycin-susceptible Pseudomonas aeruginosa isolate 108590
Pseudomonas aeruginosa [2] = assay: Antibacterial activity against multidrug-resistant/tobramycin-susceptible Pseudomonas aeruginosa isolate 86079
Pseudomonas aeruginosa [3] = assay: Antibacterial activity against multidrug/extremely drug-resistant/colistin-susceptible Pseudomonas aeruginosa isolate 264-104354
Pseudomonas aeruginosa [4] = assay: Antibacterial activity against multidrug/extremely drug-resistant/colistin-susceptible Pseudomonas aeruginosa isolate 100036
Pseudomonas aeruginosa [5] = assay: Antibacterial activity against multidrug-resistant/tobramycin-susceptible Pseudomonas aeruginosa isolate 80621
Pseudomonas aeruginosa [6] = assay: Antibacterial activity against multidrug-resistant/tobramycin-susceptible Pseudomonas aeruginosa isolate 86053
Pseudomonas aeruginosa [7] = assay: Antibacterial activity against multidrug-resistant/tobramycin-susceptible Pseudomonas aeruginosa isolate 92014
Pseudomonas aeruginosa [8] = assay: Antibacterial activity against multidrug/extremely drug-resistant/colistin-susceptible Pseudomonas aeruginosa isolate 259-96918
Pseudomonas aeruginosa [9] = assay: Antibacterial activity against multidrug/extremely drug-resistant/colistin-susceptible Pseudomonas aeruginosa isolate 260-97103
Pseudomonas aeruginosa [10] = assay: Antibacterial activity against multidrug-resistant/tobramycin-susceptible Pseudomonas aeruginosa isolate 86052
Pseudomonas aeruginosa [11] = assay: Antibacterial activity against multidrug-resistant/tobramycin-susceptible Pseudomonas aeruginosa isolate 85322
Pseudomonas aeruginosa [12] = assay: Antibacterial activity against multidrug-resistant/tobramycin-susceptible Pseudomonas aeruginosa isolate 86067
Pseudomonas aeruginosa [13] = assay: Antibacterial activity against multidrug-resistant/tobramycin-susceptible Pseudomonas aeruginosa isolate 86141
Pseudomonas aeruginosa [14] = assay: Antibacterial activity against multidrug-resistant/tobramycin-susceptible Pseudomonas aeruginosa isolate 79199
Pseudomonas aeruginosa [15] = assay: Antibacterial activity against multidrug-resistant/tobramycin-susceptible Pseudomonas aeruginosa isolate 83182
Pseudomonas aeruginosa [16] = assay: Antibacterial activity against multidrug/extremely drug-resistant/colistin-susceptible Pseudomonas aeruginosa isolate 101885
Pseudomonas aeruginosa [17] = assay: Antibacterial activity against pandrug-resistant Pseudomonas aeruginosa isolate 91433
Pseudomonas aeruginosa [18] = assay: Antibacterial activity against multidrug-resistant/tobramycin-susceptible Pseudomonas aeruginosa isolate 84745
Pseudomonas aeruginosa [19] = assay: Antibacterial activity against pandrug-resistant Pseudomonas aeruginosa isolate 101243
Pseudomonas aeruginosa [20] = assay: Antibacterial activity against multidrug/extremely drug-resistant/colistin-susceptible Pseudomonas aeruginosa isolate 262-101856

Molecule: C[C@@H](O)[C@H]1C(=O)N2C(C(=O)O)=C(S[C@@H]3CN[C@H](C(=O)N(C)C)C3)[C@H](C)[C@H]12 [MEROPENEM]
- MIC (Pseudomonas aeruginosa [1]): 8 µg/mL (≈ 20.9 µM)
- MIC (Pseudomonas aeruginosa [2]): 32 µg/mL (≈ 83.4 µM)
- MIC (Pseudomonas aeruginosa [3]): > 32 µg/mL
- MIC (Pseudomonas aeruginosa [4]): 4 µg/mL (≈ 10.4 µM)
- MIC (Pseudomonas aeruginosa [5]): 16 µg/mL (≈ 41.7 µM)
- MIC (Pseudomonas aeruginosa [6]): > 32 µg/mL
- MIC (Pseudomonas aeruginosa [7]): 8 µg/mL (≈ 20.9 µM)
- MIC (Pseudomonas aeruginosa [8]): > 32 µg/mL
- MIC (Pseudomonas aeruginosa [9]): 16 µg/mL (≈ 41.7 µM)
- MIC (Pseudomonas aeruginosa [10]): 8 µg/mL (≈ 20.9 µM)
- MIC (Pseudomonas aeruginosa [11]): 16 µg/mL (≈ 41.7 µM)
- MIC (Pseudomonas aeruginosa [12]): > 32 µg/mL
- MIC (Pseudomonas aeruginosa [13]): 16 µg/mL (≈ 41.7 µM)
- MIC (Pseudomonas aeruginosa [14]): 16 µg/mL (≈ 41.7 µM)
- MIC (Pseudomonas aeruginosa [15]): 16 µg/mL (≈ 41.7 µM)
- MIC (Pseudomonas aeruginosa [16]): 1 µg/mL (≈ 2.61 µM)
- MIC (Pseudomonas aeruginosa [17]): 8 µg/mL (≈ 20.9 µM)
- MIC (Pseudomonas aeruginosa [18]): 16 µg/mL (≈ 41.7 µM)
- MIC (Pseudomonas aeruginosa [19]): 16 µg/mL (≈ 41.7 µM)
- MIC (Pseudomonas aeruginosa [20]): 32 µg/mL (≈ 83.4 µM)

Molecule: GENTAMICIN
- MIC (Pseudomonas aeruginosa [1]): 16 µg/mL
- MIC (Pseudomonas aeruginosa [2]): 8 µg/mL
- MIC (Pseudomonas aeruginosa [3]): > 32 µg/mL
- MIC (Pseudomonas aeruginosa [4]): > 32 µg/mL
- MIC (Pseudomonas aeruginosa [5]): 16 µg/mL
- MIC (Pseudomonas aeruginosa [6]): 4 µg/mL
- MIC (Pseudomonas aeruginosa [7]): 4 µg/mL
- MIC (Pseudomonas aeruginosa [8]): > 32 µg/mL
- MIC (Pseudomonas aeruginosa [9]): > 32 µg/mL
- MIC (Pseudomonas aeruginosa [10]): 4 µg/mL
- MIC (Pseudomonas aeruginosa [11]): 4 µg/mL
- MIC (Pseudomonas aeruginosa [12]): > 32 µg/mL
- MIC (Pseudomonas aeruginosa [13]): 8 µg/mL
- MIC (Pseudomonas aeruginosa [14]): 4 µg/mL
- MIC (Pseudomonas aeruginosa [15]): 4 µg/mL
- MIC (Pseudomonas aeruginosa [16]): > 0.5 µg/mL
- MIC (Pseudomonas aeruginosa [17]): 32 µg/mL
- MIC (Pseudomonas aeruginosa [18]): 8 µg/mL
- MIC (Pseudomonas aeruginosa [19]): > 32 µg/mL
- MIC (Pseudomonas aeruginosa [20]): > 32 µg/mL

Molecule: C[C@H]1c2cccc(O)c2C(=O)C2=C(O)[C@]3(O)C(=O)C(C(N)=O)=C(O)[C@@H](N(C)C)[C@@H]3[C@@H](O)[C@@H]21.O [DOXYCYCLINE]
- MIC (Pseudomonas aeruginosa [3]): > 32 µg/mL
- MIC (Pseudomonas aeruginosa [4]): > 32 µg/mL
- MIC (Pseudomonas aeruginosa [8]): > 32 µg/mL
- MIC (Pseudomonas aeruginosa [9]): 32 µg/mL
- MIC (Pseudomonas aeruginosa [16]): > 32 µg/mL
- MIC (Pseudomonas aeruginosa [17]): 32 µg/mL
- MIC (Pseudomonas aeruginosa [19]): 8 µg/mL
- MIC (Pseudomonas aeruginosa [20]): > 32 µg/mL
